In experiment [1] the target is AHAS protein comprising both the P197S and W574L mutation in one ALS protein (Arabidopsis thaliana, UniProt P17597, P197S/W574L). It is filed as biochemical. To be noted: both mutations in one ALS protein; for Resistance Factor P197S-W574L (in one protein): relative to WT. As to the method: (§1) Bacteria are grown at 37° C. in LB-medium containing 100 mg/l carbenicillin and 25 mg/l canamycin, induced with 1 mM isopropyl-β-D-thiogalactopyranoside at an OD600 of 0.6, cultivated for 16 hours at 18° C. and harvested by, e.g., centrifugation. Bacterial pellets are resuspended in 100 mM sodium phosphate buffer pH 7.0 containing 0.1 mM thiamine-pyrophosphate, 1 mM MgCl2, and 1 μM FAD at a concentration of 1 gram wet weight per 25 ml of buffer and disrupted by, e.g., sonification. The crude protein extract obtained after centrifugation is used for ALS activity measurements.
(§2) ALS protein can be extracted from leaves or tissue cultures, such as B. napus or B. juncea leaves, or B. napus or B. juncea tissue cultures as described by Ray (Plant Physiol, 1984, 75:827-831). An ALS assays can be carried out in 96-well microtiter plates using a modification of the procedure described by Ray (1984): The reaction mixture contains 20 mM potassium phosphate buffer pH 7.0, 20 mM sodium pyruvate, 0.45 mM thiamine-pyrophosphate, 0.45 mM MgCl2, 9 μM FAD. ALS enzyme and various concentrations of ALS inhibitors can be mixed in a final volume of 90 μl. Assays can be initiated by adding enzyme and the assays can be terminated after 75 min incubation at 30° C. by the addition of 40 μl 0.5 M H2SO4.

The next experiment deals with AHAS protein WT (Arabidopsis thaliana, UniProt P17597). Description: biochemical. To be noted: for pI50 WT: AHAS WT. Here is the method:
as §1, §2

The target in experiment [2] is AHAS protein comprising the W574L mutation (Arabidopsis thaliana, UniProt P17597, W574L). Nature of the experiment: biochemical. The conditions noted are these: for Resistance Factor W574L: AHAS W574L relative to WT; for pI50 W574L: AHAS W574L. Here is the method:
as §1, §2

Experiment [3] has as its target AHAS protein comprising the P197S mutation (Arabidopsis thaliana, UniProt P17597, P197S). Description: biochemical. The conditions noted are these: for Resistance Factor P197S: AHAS P197S relative to WT; for pI50 P197S: AHAS P197S. Here is the method: as §1, §2
In experiment [4] the target is mixture of two ALS proteins, one comprising the P197S and the other the W574L mutation (Arabidopsis thaliana, UniProt P17597, P197S/W574L). Description: biochemical. The conditions noted are these: for Resistance Factor P197S & W574L (mixture): calculated mixture of two ALS proteins, relative to WT; for pI50 P197S & W574L (mixture): mixture of two ALS proteins, calculated as described in WO 2013/127766.

SMILES strings stand for the structures.

Sequence of AHAS protein comprising the W574L mutation (P17597 56-670 W574L): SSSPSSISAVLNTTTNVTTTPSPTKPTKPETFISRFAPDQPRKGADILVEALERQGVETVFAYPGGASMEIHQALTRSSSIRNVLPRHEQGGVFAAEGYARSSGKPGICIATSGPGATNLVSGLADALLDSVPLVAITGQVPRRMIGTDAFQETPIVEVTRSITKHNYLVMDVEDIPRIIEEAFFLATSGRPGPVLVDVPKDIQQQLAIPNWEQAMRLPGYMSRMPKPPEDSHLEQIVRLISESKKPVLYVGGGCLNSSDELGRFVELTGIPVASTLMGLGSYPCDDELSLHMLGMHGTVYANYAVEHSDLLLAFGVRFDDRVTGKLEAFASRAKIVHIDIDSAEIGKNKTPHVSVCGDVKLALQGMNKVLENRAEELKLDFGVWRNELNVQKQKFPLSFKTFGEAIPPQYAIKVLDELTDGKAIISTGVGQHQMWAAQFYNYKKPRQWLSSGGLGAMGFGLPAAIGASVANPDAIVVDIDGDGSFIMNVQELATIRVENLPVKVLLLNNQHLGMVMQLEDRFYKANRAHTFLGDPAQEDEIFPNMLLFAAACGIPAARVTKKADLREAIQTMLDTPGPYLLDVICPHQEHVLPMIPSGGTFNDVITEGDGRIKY
Sequence of AHAS protein comprising the P197S mutation (P17597 56-670 P197S): as the sequence (P17597 56-670 W574L) above, with P142S, L519W counted along it
Sequence of AHAS protein comprising both the P197S and W574L mutation in one ALS protein (P17597 56-670 P197S/W574L): as the sequence (P17597 56-670 W574L) above, with P142S counted along it
Sequence of mixture of two ALS proteins, one comprising the P197S and the other the W574L mutation (P17597 56-670 P197S/W574L): as the sequence (P17597 56-670 W574L) above, with P142S counted along it
Sequence of AHAS protein WT (P17597 56-670): as the sequence (P17597 56-670 W574L) above, with L519W counted along it

Consider `COC(=O)c1ccc(C(F)(F)F)nc1S(=O)(=O)NC(=O)Nc1nc(OC)cc(OC)n1` [Flupyrsulfuron-methyl], for which the “Resistance Factor P197S-W574L (in one protein)” value (from here on “Resistance Factor P197S-W574L”) in experiment [1] is reported as more than 47863.
Usually IC50 stands for the concentration that inhibits the measured activity by half. At AHAS protein WT, `COc1cc(OC)nc(NC(=O)NS(=O)(=O)c2ncccc2C(F)(F)F)n1` [Flazasulfuron, flazasulfuron] gave an IC50 of 0.000794 µM. In experiment [2], half-maximal inhibition (IC50) required 3.16 µM and the “Resistance Factor W574L” value is 3802. In experiment [3], half-maximal inhibition (IC50) was put at 0.1 µM and the “Resistance Factor P197S” value came out at 120. In addition, in experiment [1], the “pI50 P197S-W574L (in one protein)” value is recorded as less than 4 and the “Resistance Factor P197S-W574L” value is recorded as more than 120226. Also, in experiment [4], the IC50 is 0.631 µM and the “Resistance Factor P197S & W574L (mixture)” value is reported as 794.
In turn, `COc1cc(OC)nc(NC(=O)NS(=O)(=O)N(C)S(C)(=O)=O)n1` [Amidosulfuron, amidosulfuron] showed an IC50 on AHAS protein WT of 0.2 µM. Also, in experiment [2], the IC50 is more than 100 µM and the “Resistance Factor W574L” value is more than 488. Besides, in experiment [3], the half-maximal inhibitory concentration (IC50) is more than 100 µM and the “Resistance Factor P197S” value is more than 488. Besides, in experiment [1], the “pI50 P197S-W574L (in one protein)” value is recorded as less than 4 and the “Resistance Factor P197S-W574L” value was more than 488. In experiment [4], the IC50 is more than 100 µM and the “Resistance Factor P197S & W574L (mixture)” value is more than 501.
Regarding `COc1cc(OC)n2nc(NS(=O)(=O)c3c(C(F)(F)F)ccnc3OC)nc2n1` [Pyroxsulam, pyroxsulam], the “pI50 WT” value on AHAS protein WT was determined as 8.6. In experiment [2], the “pI50 W574L” value is reported as less than 4 and the “Resistance Factor W574L” value is recorded as more than 41368. Besides, in experiment [3], the “pI50 P197S” value stood at 6.2 and the “Resistance Factor P197S” value was 261. Besides, in experiment [1], the “pI50 P197S-W574L (in one protein)” value was less than 4 and the “Resistance Factor P197S-W574L” value is given as more than 41368. In addition, in experiment [4], the “Resistance Factor P197S & W574L (mixture)” value is 6310 and the “pI50 P197S & W574L (mixture)” value is given as 4.8.
For `CCCOc1nn(C(=O)[N-]S(=O)(=O)c2ccccc2C(=O)OC)c(=O)n1C.[Na+]` [Propoxycarbazone], the “Resistance Factor W574L” value in experiment [2] is reported as 293. The “Resistance Factor P197S” value in experiment [3] was 147. The “Resistance Factor P197S-W574L” value in experiment [1] is listed as more than 4641. Besides, the “Resistance Factor P197S & W574L (mixture)” value in experiment [4] was 200.
In the case of `COc1ncc(F)c2nc(S(=O)(=O)Nc3c(F)cccc3F)nn12` [Florasulam, florasulam], the “pI50 WT” value on AHAS protein WT came out at 7.8. In addition, in experiment [2], the “pI50 W574L” value is reported as 4.6 and the “Resistance Factor W574L” value is listed as 1738. Further, in experiment [3], the “pI50 P197S” value is reported as 6.4 and the “Resistance Factor P197S” value is 28. For the same compound, in experiment [1], the “pI50 P197S-W574L (in one protein)” value is less than 4 and the “Resistance Factor P197S-W574L” value is recorded as more than 6918. Moreover, in experiment [4], the “Resistance Factor P197S & W574L (mixture)” value was 200 and the “pI50 P197S & W574L (mixture)” value is on record as 5.5.
Consider `COc1cc(OC)n2nc(S(=O)(=O)Nc3c(Cl)ccc(C)c3Cl)nc2n1` [Metosulam, metosulam], for which the IC50 against AHAS protein WT is 0.00316 µM. In experiment [2], the midpoint of inhibition, the IC50, lay at 20 µM and the “Resistance Factor W574L” value was found to be 5754. Besides, in experiment [3], the IC50 is 1.58 µM and the “Resistance Factor P197S” value worked out at 457. In experiment [1], the “pI50 P197S-W574L (in one protein)” value is recorded as less than 4 and the “Resistance Factor P197S-W574L” value is reported as more than 28840. In experiment [4], the IC50 was 6.31 µM and the “Resistance Factor P197S & W574L (mixture)” value is 2512.
For `COC(=O)c1sccc1S(=O)(=O)NC(=O)Nc1nc(C)nc(OC)n1` [Thifensulfuron-Methyl, thifensulfuron-methyl], the IC50 against AHAS protein WT was 0.0398 µM. In experiment [2], 63.1 µM corresponded to half-maximal inhibition (IC50) and the “Resistance Factor W574L” value is recorded as 1585. In experiment [3], the IC50 is 7.94 µM and the “Resistance Factor P197S” value is 200. In experiment [1], the “pI50 P197S-W574L (in one protein)” value is less than 4 and the “Resistance Factor P197S-W574L” value was more than 2511. For the same compound, in experiment [4], the IC50 is 25.1 µM and the “Resistance Factor P197S & W574L (mixture)” value is listed as 631.
For `CCS(=O)(=O)c1nc2ccccn2c1S(=O)(=O)NC(=O)Nc1nc(OC)cc(OC)n1` [Sulfosulfuron, sulfosulfuron], the IC50 at AHAS protein WT was 0.02 µM. In experiment [2], the IC50 was more than 100 µM and the “Resistance Factor W574L” value is given as more than 4641. Moreover, in experiment [3], it took 39.8 µM to reach half-maximal inhibition (IC50) and the “Resistance Factor P197S” value is given as 1848. Further, in experiment [1], the “pI50 P197S-W574L (in one protein)” value is on record as less than 4 and the “Resistance Factor P197S-W574L” value was more than 4641. For the same compound, in experiment [4], the IC50 was 251 µM and the “Resistance Factor P197S & W574L (mixture)” value is on record as 10000.
In turn, `CCS(=O)(=O)c1cccnc1S(=O)(=O)NC(=O)Nc1nc(OC)cc(OC)n1` [Rimsulfuron, rimsulfuron] showed an IC50 against AHAS protein WT of 0.02 µM. In addition, in experiment [2], the IC50 was 10 µM and the “Resistance Factor W574L” value is reported as 447. For the same compound, in experiment [3], the IC50 was 0.398 µM and the “Resistance Factor P197S” value was found to be 18. For the same compound, in experiment [1], the “pI50 P197S-W574L (in one protein)” value was less than 4 and the “Resistance Factor P197S-W574L” value is more than 4466. Moreover, in experiment [4], the IC50 was 2 µM and the “Resistance Factor P197S & W574L (mixture)” value is listed as 63.
Compound `COc1cc(OC)nc(NC(=O)NS(=O)(=O)c2ncccc2C(=O)N(C)C)n1` [Nicosulfuron, nicosulfuron] gave an IC50 against AHAS protein WT of 0.158 µM. Further, in experiment [2], the IC50 is more than 100 µM and the “Resistance Factor W574L” value is listed as more than 607. Moreover, in experiment [3], inhibition was half-maximal at 1 µM (IC50) and the “Resistance Factor P197S” value was 6. Also, in experiment [1], the “pI50 P197S-W574L (in one protein)” value is on record as less than 4 and the “Resistance Factor P197S-W574L” value is more than 607. Further, in experiment [4], the IC50 was 31.6 µM and the “Resistance Factor P197S & W574L (mixture)” value was 251.
With `COC(=O)c1ccc(CNS(C)(=O)=O)cc1S(=O)(=O)NC(=O)Nc1nc(OC)cc(OC)n1` [Mesosulfuron-methyl, mesosulfuron-methyl], in experiment [2], the “Resistance Factor W574L” value was found to be 25770. For the same compound, the “Resistance Factor P197S” value in experiment [3] came out at 65. For the same compound, in experiment [1], the “Resistance Factor P197S-W574L” value is reported as more than 64730. Moreover, the “Resistance Factor P197S & W574L (mixture)” value in experiment [4] is 794.
For `COC(=O)c1ccc(I)cc1S(=O)(=O)[N-]C(=O)Nc1nc(C)nc(OC)n1.[Na+]` [Iodosulfuron-methy-sodium, iodosulfuron-methyl-sodium], the “Resistance Factor W574L” value in experiment [2] stood at 555. Further, in experiment [3], the “Resistance Factor P197S” value came out at 139. Moreover, the “Resistance Factor P197S-W574L” value in experiment [1] is given as more than 35030. The “Resistance Factor P197S & W574L (mixture)” value in experiment [4] is recorded as 316.
For the compound `COC(=O)c1csc(C)c1S(=O)(=O)NC(=O)n1nc(OC)n(C)c1=O` [Thiencarbazone-methyl, thiencarbazone-methyl], in experiment [2], the “Resistance Factor W574L” value came to 1173. For the same compound, the “Resistance Factor P197S” value in experiment [3] is 1173. The “Resistance Factor P197S-W574L” value in experiment [1] was more than 7399. In addition, in experiment [4], the “Resistance Factor P197S & W574L (mixture)” value was 1259.
On to `COC(=O)c1ccccc1S(=O)(=O)NC(=O)Nc1nc(C)nc(OC)n1` [Metsulfuron-methyl, metsulfuron-methyl], for which the “Resistance Factor W574L” value in experiment [2] is 755. Further, the “Resistance Factor P197S” value in experiment [3] is 38. In addition, in experiment [1], the “Resistance Factor P197S-W574L” value is more than 7547.

The values above are taken from US20190136254A1, “ALS Inhibitor Herbicide Tolerant Mutant Plants” (BASF SE, priority 2013, published 2019).
